These results are taken from paper PMC10488193, “Evaluation of the Chemical Stability, Membrane Permeability and Antiproliferative Activity of Cyclic Diarylheptanoids from European Hornbeam (Carpinus betulus L.)” (International Journal of Molecular Sciences, 2023).

On the set-up of data set [1]: method as in PMID 28074653. The settings on record: ambient temperature, solvolysis and oxidative degradation; cited from earlier work.
The subject of data set [2] is A2058 (melanoma, derived from metastatic site: lymph node). As to the kind of experiment: In vitro antiproliferative activity, Alamar Blue assay. The format is cell-based. The settings on record: Homo sapiens. The protocol:
(§1) For the experiments, the following human cell lines were used: A2058 (melanoma, derived from metastatic site: lymph node), HepG2 (hepatocellular carcinoma), U87 (glioblastoma), HT-29 (colorectal carcinoma) and HL-60 (acute promyelocytic leukaemia). Cell lines were generous gifts from Dr. […] (Department of Experimental Pharmacology, National Institute of Oncology, Budapest, Hungary). […] The cultures were maintained at 37 °C in a humidified atmosphere with 5% CO2. The cells were grown to confluency and then divided into 96-well tissue culture plates (Sarstedt, Nümbrecht, Germany) with an initial cell number of 5000 cells/well. Cells were incubated at 37 °C in a 5% CO2 humidified atmosphere overnight. Before the assay, 50 μL of the supernatant was removed and replaced with a 50 μL serum-free medium (SFM). […] The cells were treated for 24 h with the compounds and negative control cells (no compound control) were treated with SFM only (incubated at 37 °C). […] The percentage of cytostasis was calculated with the following equation: […] Data were evaluated with Excel (version: 365; Microsoft, Redmond, WA, USA) and the curves were defined using Microcal OriginPro (version: 2018; OriginLab, Northampton, MA, USA) software. In each case, two independent experiments were carried out with four parallel measurements and the mean IC50 values together with ±SD were represented. The Excel (version: 365) (Microsoft, Redmond, WA, USA) and Microcal OriginPro (version: 2018) (OriginLab, Northampton, MA, USA) softwares were used for data evaluation.

Data set [3] has as its system HL-60 (acute promyelocytic leukaemia). The description is as above. The class given is cell-based. The settings on record: Homo sapiens. The protocol:
as §1

The test system of data set [4] is HT-29 (colorectal carcinoma). The description is as above. The format is cell-based. The settings on record: Homo sapiens. As to the method:
as §1

Data set [5] concerns HepG2 (hepatocellular carcinoma). The description is as above. The settings on record: Homo sapiens. The class given is cell-based. The protocol:
as §1

The test system of data set [6] is U87 (glioblastoma). The data set is described as above. The class given is cell-based. The settings on record: Homo sapiens, read-out: IC50 ± SD. The protocol:
as §1

The conditions of data set [7]: cited from earlier work.
[8] abbreviates: A2058, 24 h treatment, then three days culture, n = 2, read-out: IC50 ± SD.
The mark [9] stands for this setting: HepG2, 24 h treatment, then three days culture, n = 2, read-out: IC50 ± SD.
Where [10] appears, read: U87, 24 h treatment, then three days culture, n = 2.

Where two headings read alike, the source gives them in different places.

For the compound `COc1cc(/C=C/C(=O)CC(=O)/C=C/c2ccc(O)c(OC)c2)ccc1O` [Curcumin, curcumin], the half-life result in data set [1] was “less than an hour”.
Turning to `COc1cccc2c1C(=O)c1c(O)c3c(c(O)c1C2=O)C[C@@](O)(C(C)=O)C[C@@H]3O[C@H]1C[C@H](N)[C@H](O)[C@H](C)O1` [Dau, daunomycin, reference compound], the IC50 came out at 0.16 µM in data set [2] (A2058, read-out: IC50 ± SD); 0.02 ± 0.01 µM in data set [3] (HL-60, read-out: IC50 ± SD); 0.2 ± 0.01 µM in data set [4] (HT-29, read-out: IC50 ± SD); 1.2 ± 0.2 µM in data set [5] (HepG2, read-out: IC50 ± SD); 0.4 ± 0.05 µM in data set [6].
In the case of `COc1cc([C@@H]2c3cc4c(cc3[C@@H](O[C@@H]3O[C@@H]5CO[C@@H](C)O[C@H]5[C@H](O)[C@H]3O)[C@H]3COC(=O)[C@H]23)OCO4)cc(OC)c1O` [Etoposide, etoposide, reference compound], the concentration for half-maximal inhibition (IC50) is 8.9 ± 0.2 µM in data set [2] (setting [8]); 18.5 ± 1.7 µM in data set [4] (HT-29, 24 h treatment, then three days culture, n = 2, read-out: IC50 ± SD); 20.9 ± 1.2 µM in data set [5] (setting [9]); 27 ± 2.3 µM in data set [6] (setting [10]).
As to `O=C(/C=C/CCc1ccc(O)c(O)c1)CCc1ccc(O)c(O)c1` [Hirsutenone, hirsutenone], the half-life in data set [7] (aqueous solution, 25 °C) was 139 h; in data set [7] (aqueous solution, 50 °C) it was 38.2 h; in data set [7] (room temperature), “less than seven days”.
On to `O=C(Nc1ccc(C(F)(F)F)cc1)c1cc(Cl)ccc1O` [Sal, 5-chloro-2-hydroxy-N-[4-(trifluoromethyl)phenyl]benzamide, reference compound], for which the IC50 in data set [2] (setting [8]) came to 6.8 ± 1.2 µM; in data set [3] (HL-60, 24 h treatment, then three days culture, n = 2, read-out: IC50 ± SD), 4.5 ± 0.7 µM; in data set [5] (setting [9]), 5.8 ± 0.7 µM; in data set [6] (setting [10]), 0.8 ± 0.3 µM.
